{
  "source": "patent US20100081719A1",
  "about": "(priority 2006, published 2010)",
  "origin": "cited, not measured here",
  "key": {"[1]": {"test_system": "subjects suffering from fibromyalgia syndrome", "details": "cited from earlier work; for Subjects with significant clinical improvement: after one month; for Difference from placebo: at three months"}, "[2]": {"test_system": "patients with FMS", "details": "open-label; 11 completing patients; cited from earlier work"}},
  "data": [
    {"smiles": "CN(C)CCC=C1c2ccccc2C=Cc2ccccc21", "note": "[cyclobenzaprine]", "values": [
      {"measurement": "Subjects with significant clinical improvement", "setting": "[1]", "value": 12, "unit": "%"},
      {"measurement": "Difference from placebo", "setting": "[1]", "value": "no difference"}
    ]},
    {"smiles": "CN(C)CCC=C1c2ccccc2CCc2ccccc21", "note": "[amitriptyline]", "values": [
      {"measurement": "Subjects with significant clinical improvement", "setting": "[1]", "value": 21, "unit": "%"},
      {"measurement": "Difference from placebo", "setting": "[1]", "value": "no difference"}
    ]},
    {"smiles": "COc1ccc(C(CN(C)C)C2(O)CCCCC2)cc1", "note": "(stereo not drawn) [venlafaxine]", "values": [
      {"measurement": "Completing patients with a positive response (50% or greater improvement in two different measurements of overall pain)", "setting": "[2]", "value": "Six of 11"},
      {"measurement": "Completing patients with insomnia requiring adjunctive medical therapy", "setting": "[2]", "value": "3 of 11"}
    ]}
  ]
}
